In assay [1] the target is T1, GPR6 (Homo sapiens, UniProt P46095).
T1 construct: expressed in transfected cells; host or cells: CHO cells
Nature of the assay: GPR6 antagonist functional cAMP assay (LANCE Ultra cAMP TR-FRET, CHO cells stably expressing GPR6). Type of assay: cell-based. The method, then:
(§1) Example 56. GPR6 and GPR3 Antagonist Functional cAMP Assay
(§2) CHO cells stably expressing GPR6 or GPR3 receptors were dissociated from cell culture flasks and incubated for 2 h at 37° C. in a 10 cm dish in a humidified incubator. Cells were dissociated, counted to have 1e6 cells/mL (4.5e6 cells needed/384-well plate), washed once in starved media, than in D-PBS and finally suspended in assay buffer (Krebs-Ringer Bicarbonate Buffer with 1800 mg/L glucose, without calcium chloride and sodium bicarbonate (Sigma) in the presence of 0.1% BSA and 150 μM of Ro 20-1724 Phosphodiesterase inhibitor).
(§3) Cells in suspension from above were plated in 384-well white Optiplate (PerkinElmer) at 10,000 cells/well/10 μl, briefly centrifuged prior direct addition of compounds ([…]) in 10 mM DMSO using a Tecan D300e Digital Dispenser, final DMSO in each well was normalized to 0.1%. Cells were incubated in the presence of compounds for 45 min at 37° C. in a humidified incubator.
(§4) To measure cAMP levels, LANCE® Ultra cAMP assay (Perkin Elmer), a homogeneous time-resolved fluorescence resonance energy transfer (TR-FRET) immunoassay was used following manufacturer's recommendations. Plates were shaken for 1 h at room temperature before reading on a Tecan InfiniteF200Pro multi-mode plate reader using standard FRET settings (Excitation 340 nm, Emission at 615 nm). FRET values were reported as readings obtained at 665 nm. Data were normalized to DMSO (0.1%) and reference compounds (100%) and fit to a 4-parameter logistical fit to generate antagonist IC50s.

In assay [2] the target is T2, GPR3 (Homo sapiens, UniProt P46089).
T2 construct: expressed in transfected cells; host or cells: CHO cells
Nature of the assay: GPR3 antagonist functional cAMP assay (LANCE Ultra cAMP TR-FRET, CHO cells stably expressing GPR3). Type of assay: cell-based. The method, then:
as §1, §2, §3, §4

Where [3] appears, read: CHO cells stably expressing GPR6, cAMP assay (Example 24).
Setting [4] is: CHO cells stably expressing GPR3, cAMP assay (Example 24).
Where [5] appears, read: procedure as described in Example 24.

Eleven compounds from US20260042755A1, “GPR6 INVERSE AGONISTS” (MapLight Therapeutics, Inc., priority 2022, published 2026) can be followed below.

T1 sequence (P46095 whole entry): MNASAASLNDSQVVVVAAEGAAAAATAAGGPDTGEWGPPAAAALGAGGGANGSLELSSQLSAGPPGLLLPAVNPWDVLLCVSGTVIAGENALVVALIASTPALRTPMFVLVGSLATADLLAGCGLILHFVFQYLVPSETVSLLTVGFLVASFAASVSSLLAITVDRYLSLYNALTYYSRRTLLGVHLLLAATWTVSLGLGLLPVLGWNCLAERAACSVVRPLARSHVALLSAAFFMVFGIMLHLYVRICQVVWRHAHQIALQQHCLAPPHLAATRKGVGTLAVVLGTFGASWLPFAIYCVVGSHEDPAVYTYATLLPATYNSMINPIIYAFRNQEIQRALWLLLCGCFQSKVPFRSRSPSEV
T2 sequence (P46089 whole entry, species assumed): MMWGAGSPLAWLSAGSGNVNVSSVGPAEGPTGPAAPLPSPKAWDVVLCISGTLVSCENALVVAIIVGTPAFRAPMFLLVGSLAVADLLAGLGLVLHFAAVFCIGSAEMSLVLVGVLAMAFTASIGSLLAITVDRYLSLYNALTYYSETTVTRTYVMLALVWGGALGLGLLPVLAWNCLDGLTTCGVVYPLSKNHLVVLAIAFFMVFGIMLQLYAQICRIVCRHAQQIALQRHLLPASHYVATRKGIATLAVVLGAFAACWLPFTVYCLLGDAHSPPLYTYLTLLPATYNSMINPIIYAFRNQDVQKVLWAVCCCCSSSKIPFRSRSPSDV

A word on the IC50: it is the concentration needed to halve the response being measured. Read a high IC50 as weaker potency. Regarding `CC(=O)N1CCc2nc(N3CC[C@H](Oc4ccc(F)cc4F)[C@H](F)C3)c(-c3cnn(C)c3)nc2C1` (single isomer, unassigned) [Compound 334], the IC50 in assay [1] (procedure of Example 24) and in assay [2] (procedure of Example 24) was 1000 to 30000 nM each time.
For `CCn1cnc(-c2nc3c(nc2N2CCC(Oc4ccc(F)cc4F)CC2)CCN(C(C)=O)C3)c1` [Compound 476, 1-{2-[4-(2,4-difluorophenoxy)piperidin-1-yl]-3-(1-ethyl-1H-imidazol-4-yl)-5H,6H,7H,8H-pyrido[3,4-b]pyrazin-6-yl}ethan-1-one], the IC50 in assay [1] (setting [3]) and in assay [2] (setting [4]) was 1000 to 30000 nM throughout.
Turning to `CC(=O)N1CCc2nc(N3CCC(Oc4ccc(F)cc4F)CC3)c(-c3cnn4c3COCC4)nc2C1` [Compound 245, 1-{2-[4-(2,4-difluorophenoxy)piperidin-1-yl]-3-{4H,6H,7H-pyrazolo [3,2-c][1,4]oxazin-3-yl}-5H,6H,7H,8H-pyrido[3,4-b]pyrazin-6-yl}ethan-1-one], the figures for the IC50 in assay [1] (setting [3]) and in assay [2] (setting [4]) were 100 to 1000 nM and 1000 to 30000 nM, respectively.
The corresponding values for `CCn1cc(-c2nc3c(nc2N2CCC(Oc4ccc(F)cc4F)CC2)CCN(C(=O)C2CC(F)(F)CN2)C3)cn1` (stereo not shown) [Compound 481, (2-(4-(2,4-difluorophenoxy)piperidin-1-yl)-3-(1-ethyl-1H-pyrazol-4-yl)-7,8-dihydropyrido[3,4-b]pyrazin-6(5H)-yl)(4,4-difluoropyrrolidin-2-yl)methanone] are 100 to 1000 nM and 1000 to 30000 nM.
As for `CC(=O)N1CCc2nc(N3CCC(Oc4ccc(F)cc4F)CC3)c(-c3ccncn3)nc2C1` [Compound 13, 1-{2-[4-(2,4-difluorophenoxy)piperidin-1-yl]-3-(pyrimidin-4-yl)-5H,6H,7H,8H-pyrido[3,4-b]pyrazin-6-yl}ethan-1-one], the results for the IC50 in assay [1] (setting [5]) and in assay [2] (setting [5]) were 1000 to 30000 nM and 100 to 1000 nM, respectively.
`N#CCN1CCc2nc(N3CCC(Oc4ccc(F)cc4F)CC3)c(-c3cn[nH]c3)nc2C1` [Compound 119, 2-{2-[4-(2,4-difluorophenoxy)piperidin-1-yl]-3-(1H-pyrazol-4-yl)-5H,6H,7H,8H-pyrido[3,4-b]pyrazin-6-yl}acetonitrile]: the IC50 in assay [1] (setting [3]) lay in the range of 100 to 1000 nM; in assay [2] (setting [4]), 1000 to 30000 nM.
`CC(C)(O)[C@@H](O)c1cc2nc(N3CCC(Cc4ccc(F)cc4F)CC3)c(-c3cnn(CF)c3)nc2cn1` (single isomer, unassigned) [Compound 727]: the IC50 in assay [1] (procedure of Example 24) and in assay [2] (procedure of Example 24) was 100 to 1000 nM each time.
`CC(C)(O)C(C)(O)c1cc2nc(N3CCN(Cc4ccccc4F)CC3)c(-c3cnn(C(F)F)c3)nc2cn1` (stereo not shown) [Compound 634, 2-{3-[1-(difluoromethyl)-4-pyrazolyl]-2-{4-[(o-fluorophenyl)methyl]-1-piperazinyl}-1,4,6-triaza-7-naphthyl}-3-methyl-2,3-butanediol]: the half-maximal inhibitory concentration (IC50) in assay [1] (procedure of Example 24) was 100 to 1000 nM; in assay [2] (procedure of Example 24) it was 1000 to 30000 nM.
For the compound `CC(=O)N1CCc2nc(N3CCC(Oc4ccc(F)cc4F)CC3)c(-c3cccc(C(O)C(F)F)n3)nc2C1` (stereo not shown) [Compound 210, 1-(3-[6-(2,2-difluoro-1-hydroxyethyl)pyridin-2-yl]-2-[4-(2,4-difluorophenoxy)piperidin-1-yl]-5H,6H,7H,8H-pyrido[3,4-b]pyrazin-6-yl)ethan-1-one], the half-inhibitory concentration (IC50) in assay [1] (setting [3]) and in assay [2] (setting [4]) was 1000 to 30000 nM in each case.
Take `CC(=O)N1CCc2nc(N3CCC(Oc4ccc(F)cc4F)CC3)c(-c3ccn(C(=O)OC(C)(C)C)c3)nc2C1` [Compound 53, tert-butyl 3-{6-acetyl-2-[4-(2,4-difluorophenoxy)piperidin-1-yl]-5H,6H,7H,8H-pyrido[3,4-b]pyrazin-3-yl}-1H-pyrrole-1-carboxylate]: the figures for the IC50 in assay [1] (setting [5]) and in assay [2] (setting [5]) were 1000 to 30000 nM and 100 to 1000 nM, respectively.
Consider `CC(C)(O)C(O)c1cc2nc(-c3cnn(CF)c3)c(N3CCN(Cc4ccc(F)cc4F)CC3)nc2cn1` (single isomer, unassigned) [Compound 602], for which the IC50 in assay [1] (CHO cells stably expressing GPR6, cAMP assay) was 100 to 1000 nM; in assay [2] (CHO cells stably expressing GPR3, cAMP assay), 100 to 1000 nM.
